The source of these data is patent US20100172854A1, “ANTIBACTERIAL FORMULATIONS” (priority 2007, published 2010).

≈ marks a conversion by molar mass, not a printed value.

One test has as its system a range of test bacteria. As to conditions: compound isolated from Aspergillus fumigatus, believed to be Antioxidant 2246; cited from earlier work.
The subject of the next test is P. acnes PRP-002. Briefly: Agar dilution MIC assay. The class given is cell-based, Propionibacterium acnes. The settings on record: Cutibacterium acnes, PRP002, resistance phenotype Tet/MLS. As to the method: (§1) The propionibacteria were cultured and maintained on Wilkins-Chalgren Anaerobe Medium (agar and broth) at pH 6.0; all cultures were incubated anaerobically at 37° C. for 72 hours.
(§2) This is a standard international method for quantitatively assessing the antimicrobial activity of a compound in a solid medium. The test compound was prepared to 40× the highest concentration required (e.g. 10 mg/ml for a final concentration of 250 μg/ml) and a series of doubling dilutions were performed in a suitable solvent. A set amount of these antimicrobial stock solutions was then added to molten agar medium (ca. 55° C.), mixed thoroughly, poured into sterile Petri dishes and allowed to cool/set. The culture medium was as described above.
(§3) A Multipoint™ Inoculator (AQS Manufacturing Ltd, UK) was used to inoculate the plates by spotting the inocula onto the surface of the agar, delivering approximately 1 to 2 μl per spot (yielding 10^5 CFU (colony forming units) per spot).
(§4) The plate(s) were then incubated under the conditions described above, following which they were examined visually for signs of bacterial growth. The MIC value was ascertained when there was a marked reduction in, or total loss of, growth on the test plate at the lowest concentration as compared to that of the growth on the control plate.
(§5) The assays were conducted in triplicate and included a positive control (culture medium, diluting solvent and inoculum).
In general terms: Agar dilution tests growth on a series of plates holding different concentrations.

The next test has as its system P. acnes PRP-101. Briefly: Agar dilution MIC assay. The class given is cell-based, Propionibacterium acnes. As to conditions: Cutibacterium acnes, PRP101, resistance phenotype Tet/MLS. How it is done: as §1, §2, §3, §4, §5
In another test the test system is P. acnes PRP-102. Description: Agar dilution MIC assay. The class given is cell-based, Propionibacterium acnes. As to conditions: Cutibacterium acnes, PRP102, resistance phenotype Tet/MLS. As to the method:
as §1, §2, §3, §4, §5

Another test concerns P. acnes PRP-046. Description: Agar dilution MIC assay. The class given is cell-based, Propionibacterium acnes. As to conditions: Cutibacterium acnes, PRP046, resistance phenotype None. How it is done: as §1, §2, §3, §4, §5
Another test has as its system P. acnes PRP-010. Briefly: Agar dilution MIC assay. The format is cell-based, Propionibacterium acnes. As to conditions: Cutibacterium acnes, PRP010, resistance phenotype MLSK. How it is done: as §1, §2, §3, §4, §5
The test system of a further test is P. acnes PRP-017. Briefly: Agar dilution MIC assay. As to conditions: Cutibacterium acnes, PRP017, resistance phenotype MLS. The class given is cell-based, Propionibacterium acnes. As to the method:
as §1, §2, §3, §4, §5

The next test has as its system P. acnes PRP-053. Briefly: Agar dilution MIC assay. The format is cell-based, Propionibacterium acnes. The settings on record: Cutibacterium acnes, PRP053, resistance phenotype Tet/MLS. As to the method:
as §1, §2, §3, §4, §5

The subject of another test is P. acnes PRP-004. Briefly: Agar dilution MIC assay. The format is cell-based, Propionibacterium acnes. The settings on record: Cutibacterium acnes, PRP004, resistance phenotype Tet. How it is done:
as §1, §2, §3, §4, §5

Another test relates to P. acnes PRP-003. Briefly: Agar dilution MIC assay. The class given is cell-based, Propionibacterium acnes. As to conditions: Cutibacterium acnes, PRP003, resistance phenotype Tet. How it is done: as §1, §2, §3, §4, §5
In a further test the test system is P. acnes PRP-039. Description: Agar dilution MIC assay. The format is cell-based, Propionibacterium acnes. As to conditions: Cutibacterium acnes, PRP039, resistance phenotype Tet/MLS. How it is done: as §1, §2, §3, §4, §5
A further test deals with P. acnes PRP-008. Briefly: Agar dilution MIC assay. The class given is cell-based, Propionibacterium acnes. The settings on record: Cutibacterium acnes, PRP008, resistance phenotype Clin. How it is done:
as §1, §2, §3, §4, §5

In a further test the test system is P. acnes PRP-068. Description: Agar dilution MIC assay. The format is cell-based, Propionibacterium acnes. As to conditions: Cutibacterium acnes, PRP068, resistance phenotype Ery. As to the method: as §1, §2, §3, §4, §5
In test [1] the test system is Propionibacterium acnes NCTC 737. Briefly: MIC assay. The format is cell-based. As to conditions: Cutibacterium acnes, NCTC737; P. acnes NCTC 737. How it is done: as §1
This is a standard international method for quantitatively assessing the antimicrobial activity of a compound in a liquid medium. The method used a sterile 96-well microtitre plate, capable of holding about 200 μl of liquid per well. The wells contained liquid culture medium and ranges of decreasing concentrations of the relevant test compound in doubling dilutions (e.g. 1000, 500, 250, 125 . . . μg/ml, etc. down to 0.49 μg/ml). The culture media were as described above.
The wells were inoculated with a liquid suspension of freshly grown micro-organism and incubated under the conditions described above. After incubation, the microtitre plate was examined visually (with the aid of a light box) for cloudiness in each well, which would indicate microbial growth. The MIC value was recorded as the lowest concentration of test compound required to inhibit microbial growth, i.e. the lowest concentration for which the liquid in the well remained clear.
The assays included both negative (culture medium with no micro-organisms) and positive (culture medium plus diluting solvent plus micro-organism) controls.

As usually defined, the MIC is the lowest concentration found to suppress growth. Low readings indicate greater potency, high ones weaker potency.

With `Cc1cc(Cc2cc(C)cc(C(C)(C)C)c2O)c(O)c(C(C)(C)C)c1` [AO 2246, 2,2′-methylene-bis(4-methyl-6-tert-butylphenol)], the “in vitro antimicrobial activity” value in the test with a range of test bacteria is recorded as “no in vitro antimicrobial activity”. The MIC against P. acnes PRP-002, in the test on P. acnes PRP-101, in the test on P. acnes PRP-102, against P. acnes PRP-046, against P. acnes PRP-010 and in the test with P. acnes PRP-017 was 3.9 µg/mL (≈ 11.5 µM) in each case. Further, the MIC in the test on P. acnes PRP-053 came to 3.9 µg/mL (≈ 11.5 µM); against P. acnes PRP-004, 3.9 µg/mL (≈ 11.5 µM); against P. acnes PRP-003 it was 3.9 µg/mL (≈ 11.5 µM); in the test on P. acnes PRP-039 it was 3.9 µg/mL (≈ 11.5 µM); in the test with P. acnes PRP-008, 1.95 µg/mL (≈ 5.73 µM); with P. acnes PRP-068 it was 3.9 µg/mL (≈ 11.5 µM). The compound further came in with an MIC in test [1] of 3.9 µg/mL (≈ 11.5 µM).
